This note sets out measurements from paper PMC12155096 (International Journal of Molecular Sciences, 2025).

Series [1] deals with human CYP2C19 (Homo sapiens, UniProt P33261).
The target of series [2] is CYP3A4 (Homo sapiens, UniProt P08684).
Series [3] deals with human CYP2C9 (Homo sapiens, UniProt P11712).
In series [4] the target is human CYP2D6 (Homo sapiens, UniProt P10635).
Series [5] deals with T1, human CYP1A2 (Homo sapiens, UniProt P05177).
T1 sequence (P05177 1-516): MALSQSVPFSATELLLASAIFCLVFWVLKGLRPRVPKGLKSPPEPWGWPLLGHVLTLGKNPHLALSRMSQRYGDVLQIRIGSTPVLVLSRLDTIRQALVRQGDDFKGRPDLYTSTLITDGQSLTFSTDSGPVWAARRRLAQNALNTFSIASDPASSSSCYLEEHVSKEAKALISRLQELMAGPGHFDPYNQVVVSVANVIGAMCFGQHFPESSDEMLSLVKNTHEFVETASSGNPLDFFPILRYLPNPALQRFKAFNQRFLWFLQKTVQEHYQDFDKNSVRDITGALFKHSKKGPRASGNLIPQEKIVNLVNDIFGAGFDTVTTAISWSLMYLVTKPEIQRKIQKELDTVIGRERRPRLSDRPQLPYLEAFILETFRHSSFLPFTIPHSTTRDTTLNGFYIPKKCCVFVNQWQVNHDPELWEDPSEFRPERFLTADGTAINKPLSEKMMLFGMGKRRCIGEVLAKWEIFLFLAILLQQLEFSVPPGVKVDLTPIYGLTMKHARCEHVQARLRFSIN

One may read the AC50 as the midpoint of the concentration-response curve, whichever way the signal moves.

Each structure is given as a SMILES string.

human CYP2C9, sequence (P11712 whole entry): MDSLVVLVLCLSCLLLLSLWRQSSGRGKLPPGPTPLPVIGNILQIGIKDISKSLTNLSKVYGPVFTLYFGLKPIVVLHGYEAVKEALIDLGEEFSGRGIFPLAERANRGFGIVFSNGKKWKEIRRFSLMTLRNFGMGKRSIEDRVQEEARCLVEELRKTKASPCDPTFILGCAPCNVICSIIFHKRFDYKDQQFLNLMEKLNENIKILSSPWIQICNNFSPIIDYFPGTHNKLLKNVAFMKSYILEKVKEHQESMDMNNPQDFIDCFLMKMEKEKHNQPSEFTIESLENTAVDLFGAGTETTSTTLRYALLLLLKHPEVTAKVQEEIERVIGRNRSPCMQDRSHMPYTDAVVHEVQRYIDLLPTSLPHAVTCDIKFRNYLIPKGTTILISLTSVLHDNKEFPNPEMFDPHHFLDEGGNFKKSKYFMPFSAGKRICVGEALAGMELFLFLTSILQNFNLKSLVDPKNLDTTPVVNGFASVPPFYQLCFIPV
human CYP2C19, sequence (P33261 whole entry): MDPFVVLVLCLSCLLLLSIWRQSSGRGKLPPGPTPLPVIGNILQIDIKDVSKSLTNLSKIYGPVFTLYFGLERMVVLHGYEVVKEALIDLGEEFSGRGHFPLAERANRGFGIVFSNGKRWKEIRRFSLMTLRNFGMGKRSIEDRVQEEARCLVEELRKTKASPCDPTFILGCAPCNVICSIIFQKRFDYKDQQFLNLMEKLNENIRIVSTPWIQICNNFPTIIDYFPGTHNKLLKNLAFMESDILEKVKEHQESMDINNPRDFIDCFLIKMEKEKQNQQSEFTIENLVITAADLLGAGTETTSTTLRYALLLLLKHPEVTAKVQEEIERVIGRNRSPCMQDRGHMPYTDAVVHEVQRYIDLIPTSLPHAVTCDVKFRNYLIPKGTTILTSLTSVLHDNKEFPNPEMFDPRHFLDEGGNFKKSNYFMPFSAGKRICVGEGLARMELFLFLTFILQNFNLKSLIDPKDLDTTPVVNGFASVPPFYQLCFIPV
CYP3A4, sequence (P08684 whole entry): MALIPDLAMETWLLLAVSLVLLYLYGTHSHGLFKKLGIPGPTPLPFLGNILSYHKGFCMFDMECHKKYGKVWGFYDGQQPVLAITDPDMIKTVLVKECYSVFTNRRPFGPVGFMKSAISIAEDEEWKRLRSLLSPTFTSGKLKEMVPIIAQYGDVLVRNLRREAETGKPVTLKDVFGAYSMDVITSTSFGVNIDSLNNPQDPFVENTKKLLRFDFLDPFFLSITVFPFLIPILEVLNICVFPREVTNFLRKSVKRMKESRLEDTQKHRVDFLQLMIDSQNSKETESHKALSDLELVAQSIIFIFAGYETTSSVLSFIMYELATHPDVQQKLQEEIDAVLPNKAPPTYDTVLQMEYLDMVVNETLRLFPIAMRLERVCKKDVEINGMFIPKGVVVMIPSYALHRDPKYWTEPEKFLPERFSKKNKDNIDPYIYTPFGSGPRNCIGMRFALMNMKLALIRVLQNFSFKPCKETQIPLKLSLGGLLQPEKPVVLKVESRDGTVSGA
human CYP2D6, sequence (P10635 whole entry): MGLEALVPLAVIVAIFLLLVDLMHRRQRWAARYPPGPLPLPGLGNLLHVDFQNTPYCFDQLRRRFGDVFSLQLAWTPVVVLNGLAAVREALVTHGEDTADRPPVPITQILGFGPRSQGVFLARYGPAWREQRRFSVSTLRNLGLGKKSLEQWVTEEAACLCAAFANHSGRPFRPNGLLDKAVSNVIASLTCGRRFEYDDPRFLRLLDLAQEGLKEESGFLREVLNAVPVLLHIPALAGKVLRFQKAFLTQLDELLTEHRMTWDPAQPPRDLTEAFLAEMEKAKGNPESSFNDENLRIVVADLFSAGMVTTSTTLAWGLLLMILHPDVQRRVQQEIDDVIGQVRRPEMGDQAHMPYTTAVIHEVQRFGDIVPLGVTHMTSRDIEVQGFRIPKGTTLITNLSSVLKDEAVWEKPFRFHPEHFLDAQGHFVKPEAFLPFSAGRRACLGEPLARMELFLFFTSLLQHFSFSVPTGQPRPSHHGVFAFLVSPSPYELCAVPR

For the molecule `Cl.O.c1cnc2c(c1)ccc1cccnc12`, the AC50 in series [1] is 8.94 µM; in series [2], 38.5 µM; in series [3] it was 4.59 µM; in series [4], 38.5 µM; in series [5] it was 10.6 µM.

For `Clc1cnc(Oc2ccc(Oc3ncc(Cl)cc3Cl)cc2)c(Cl)c1`, the “CYP2C19 AC50 (half-maximal activity concentration)” value (“CYP2C19 AC50” for short) in series [1] is “Inactive”. Further, in series [2], the “CYP3A4 AC50 (half-maximal activity concentration)” value (shortened to “CYP3A4 AC50”) is “Inconclusive activator”. In series [3], this molecule showed an AC50 of 2.34 µM. Moreover, the “CYP2D6 AC50 (half-maximal activity concentration)” value (from here on “CYP2D6 AC50”) in series [4] is given as “Inactive”. Moreover, the “CYP1A2 AC50 (half-maximal activity concentration)” value (“CYP1A2 AC50” for short) in series [5] was “Inactive”.

Turning to `C1CC(COCC2CO2)CCC1COCC1CO1` (stereo not shown), the “CYP2C19 AC50” value in series [1] is listed as “Inconclusive inhibitor”. Moreover, the AC50 in series [2] is 73.9 µM; in series [3], 56.6 µM. For the same molecule, the “CYP2D6 AC50” value in series [4] was “Inactive”. Besides, the “CYP1A2 AC50” value in series [5] is “Inconclusive inhibitor”.

Consider `CC(C)(C)C1=CC(=O)C(C(C)(C)C)=CC1=O`, for which the AC50 worked out at 7.8 µM in series [1], 6.47 µM in series [2], 20.8 µM in series [3] and 16.1 µM in series [5]. The “CYP2D6 AC50” value in series [4] was “Inconclusive inhibitor”.

For `O=S1(=O)CC(Cl)(Cl)C(Cl)(Cl)C1`, the AC50 came to 60.4 µM in series [1]; 30.8 µM in series [2]; 27.5 µM in series [3]; 48.8 µM in series [4]; 31.2 µM in series [5].

With `Cl.Nc1c2ccccc2nc2ccccc12.O`, the “CYP2C19 AC50” value in series [1] is “Inconclusive activator”. In series [2], the “CYP3A4 AC50” value was “Inactive”. For the same molecule, the AC50 in series [3] turned out to be 28.8 µM; in series [4], 12.9 µM; in series [5], 2.13 µM.

For the molecule `CCCCCCCCCCCCCC[N+](C)(C)Cc1ccccc1.O.O.[Cl-]`, the “CYP2C19 AC50” value in series [1] is given as “Inactive”. The AC50 in series [2] is 11.3 µM; in series [3], 40.7 µM; in series [4], 2.01 µM. The “CYP1A2 AC50” value in series [5] was “Inactive”.

On to `CCCOC(=O)c1c(Cl)c(Cl)c(Cl)c(Cl)c1C(=O)OCCC`, for which the AC50 in series [1] came to 12.5 µM; in series [2], 2.63 µM; in series [3] it was 20.1 µM; in series [5], 1.72 µM. Besides, the “CYP2D6 AC50” value in series [4] is on record as “Inconclusive inhibitor”.

On to `CCOC(=O)CC(=O)Cc1cc(F)c(Cl)nc1Cl`, for which, in series [1], the “CYP2C19 AC50” value is on record as “Inconclusive inhibitor”. Further, the figures for the half-maximal activity concentration (AC50) in series [2], in series [3] and in series [5] were 49.1 µM, 46.3 µM and 65.1 µM, respectively. Also, the “CYP2D6 AC50” value in series [4] is “Inactive”.

For `CCOC(=O)N1CCC(n2c(=O)[nH]c3cc(Cl)ccc32)CC1`, the AC50 amounted to 16.6 µM in series [1], 6.72 µM in series [2], 9.24 µM in series [3] and 22.6 µM in series [5]. In addition, in series [4], the “CYP2D6 AC50” value is listed as “Inactive”.

Turning to `C=C(C)C(=O)OCCOc1ccccc1`, the AC50 in series [1] was 28.6 µM; in series [2], 19.8 µM; in series [3] it was 38.6 µM; in series [5], 24.5 µM. Further, the “CYP2D6 AC50” value in series [4] is recorded as “Inactive”.

For `CC1=Nc2ccc3ccccc3c2C1(C)C` [1,1,2-Trimethyl-1H-benzo[e]indole], the AC50 in series [1] is 10.1 µM; in series [2] it was 2.84 µM; in series [3], 51.7 µM; in series [4], 54 µM; in series [5] it was 26.7 µM.

Regarding `c1ccc(SCCSc2ccccc2)cc1` [1,2-Bis(phenylthio)ethane], the AC50 in series [1] was 3.06 µM; in series [2], 8.36 µM; in series [3] it was 31.4 µM; in series [4], 56.1 µM; in series [5] it was 29.2 µM.

Turning to `O=C(O)c1ccc(OCCCOc2ccc(C(=O)O)cc2)cc1` [1,3-Bis(4-carboxyphenoxy)propane], in series [1], the “CYP2C19 AC50” value is “Inactive”. The AC50 was 26.4 µM in series [2] and 8.08 µM in series [4]. Also, the “CYP2C9 AC50 (half-maximal activity concentration)” value (“CYP2C9 AC50” for short) in series [3] is listed as “Inactive”. Besides, the “CYP1A2 AC50” value in series [5] is recorded as “Inactive”.

Turning to `C=C(C)C(=O)OCCCCCCOC(=O)C(=C)C` [1,6-Hexanediol dimethacrylate], the AC50 in series [1] is 51.5 µM; in series [2], 16.9 µM; in series [3], 37.4 µM; in series [5] it was 37 µM. Besides, the “CYP2D6 AC50” value in series [4] is “Inactive”.

Consider `C=C(C)C(=O)OCCCCCCCCCCOC(=O)C(=C)C` [1,10-Decanediol dimethacrylate], for which the “CYP2C19 AC50” value in series [1] was “Inconclusive inhibitor”. The AC50 in series [2] is 46.2 µM; in series [4] it was 37 µM; in series [5], 40.1 µM. In series [3], the “CYP2C9 AC50” value is given as “Inconclusive inhibitor”.

`BrCc1cccc(Oc2ccccc2)c1` [1-(Bromomethyl)-3-phenoxybenzene]: the AC50 in series [1] is 19.9 µM; in series [2], 80 µM; in series [3], 82.9 µM; in series [4], 50.3 µM; in series [5], 41.5 µM.

For `CCCCCCCCS(=O)(=O)Cl` [1-Octanesulfonyl chloride], the “CYP2C19 AC50” value in series [1] is “Inconclusive inhibitor”. Moreover, the half-maximal activity concentration (AC50) came to 22.9 µM in series [2] and 28.7 µM in series [3]. In addition, in series [4], the “CYP2D6 AC50” value was “Inconclusive inhibitor”. Also, in series [5], the “CYP1A2 AC50” value was “Inactive”.

For `O=C1NC(=O)c2cccc3cccc1c23` [1H-Benzo[de]isoquinoline-1,3(2H)-dione], in series [1], the “CYP2C19 AC50” value is “Inconclusive inhibitor”. In series [2], the “CYP3A4 AC50” value is reported as “Inconclusive activator”. Besides, the values for the AC50 in series [3] and in series [5] were 33.1 µM and 2.74 µM, respectively. Besides, the “CYP2D6 AC50” value in series [4] is reported as “Inactive”.

On to `COC(OC)(C(=O)c1ccccc1)c1ccccc1` [2,2-Dimethoxy-1,2-diphenylethanone], for which the AC50 in series [1] is 15.9 µM; in series [2] it was 10.2 µM; in series [3] it was 22.5 µM; in series [4], 34.6 µM. In addition, the “CYP1A2 AC50” value in series [5] was “Inactive”.

With `O=C(c1ccc(O)c(O)c1)c1ccc(O)cc1O` [2,3',4,4'-Tetrahydroxybenzophenone], the AC50 came to 33.2 µM in series [1]; 18.4 µM in series [2]; 4.22 µM in series [3]; 7.5 µM in series [4]; 34.3 µM in series [5].

With `O=C(O)c1cc2ccccc2nc1C(=O)O` [2,3-Quinolinedicarboxylic acid], the “CYP2C19 AC50” value in series [1] was “Inactive”. In addition, the concentration at half-maximal activity (AC50) in series [2] was 25.2 µM; in series [5], 47.9 µM. Further, in series [3], the “CYP2C9 AC50” value was “Inactive”. In addition, the “CYP2D6 AC50” value in series [4] is reported as “Inactive”.

For `O=C(c1ccc(O)cc1)c1ccc(O)cc1O` [2,4,4'-Trihydroxybenzophenone], the “CYP2C19 AC50” value in series [1] is listed as “Inactive”. The AC50 in series [2] amounted to 19.4 µM; in series [3], 3.18 µM; in series [4], 33 µM; in series [5] it was 34.3 µM.

Regarding `O=S(=O)(O)c1cc(Cl)c(Cl)cc1Cl` [2,4,5-Trichlorobenzenesulfonic acid], in series [1], the “CYP2C19 AC50” value was “Inconclusive inhibitor”. Further, the AC50 in series [2] was determined as 48.3 µM; in series [3], 33 µM. Also, the “CYP2D6 AC50” value in series [4] is recorded as “Inconclusive”. Further, in series [5], the “CYP1A2 AC50” value was “Inconclusive inhibitor”.

Consider `CCOC(=O)COc1ccc(Cl)cc1Cl` [2,4-D-ethyl ester], for which the AC50 in series [1] was determined as 26.8 µM; in series [2], 17.1 µM; in series [3], 55.5 µM; in series [5], 30.8 µM. Besides, the “CYP2D6 AC50” value in series [4] is given as “Inconclusive inhibitor”.

With `O=C([O-])CCCOc1ccc(Cl)cc1Cl.[Na+]` [2,4-DB-sodium], the “CYP2C19 AC50” value in series [1] is on record as “Inconclusive inhibitor”. In addition, the AC50 stood at 46.2 µM in series [2] and 60.6 µM in series [3]. In addition, the “CYP2D6 AC50” value in series [4] was “Inactive”. Further, in series [5], the “CYP1A2 AC50” value is “Inactive”.

Regarding `COc1ccc(C(=O)c2ccc(O)cc2)c(OC)c1` [2,4-Dimethoxy-4'-hydroxy benzophenone], the AC50 in series [1] turned out to be 6.52 µM; in series [2] it was 31.7 µM; in series [3] it was 0.64 µM; in series [5] it was 49.2 µM. Besides, the “CYP2D6 AC50” value in series [4] was “Inconclusive inhibitor”.

Consider `CCCC(C)c1ccccc1O` (stereo not shown) [2-(1-Methylbutyl)phenol], for which the AC50 in series [1] is 10.9 µM; in series [3], 49 µM; in series [5], 56.6 µM. In series [2], the “CYP3A4 AC50” value was “Inactive”. Further, in series [4], the “CYP2D6 AC50” value is listed as “Inactive”.

Regarding `c1ccc(CCCc2ccccn2)cc1` [2-(3-Phenylpropyl)pyridine], the AC50 in series [1] was 7.19 µM; in series [2], 8.01 µM; in series [3], 33.1 µM; in series [4], 53.2 µM; in series [5] it was 31.2 µM.
